Experimental data as given in ChEMBL document CHEMBL1151292, “Antineoplastic activity and cytotoxicity of flavones, isoflavones, and flavanones” (1979).
Converted amounts (≈) assume the structure as drawn. The source made the active and inactive calls. No rule for the calls is given here.

Each compound was assayed on L1210 (assay: In vivo antitumor activity against mouse L1210 cells). Conditions: not given.
Format: functional, organism-based

SMILES	Activity
COc1ccc(-c2cc(=O)c3ccc(O)cc3o2)cc1OC	inactive
O=c1cc(-c2ccc3c(c2)OCO3)oc2ccccc12	inactive
COc1cc(-c2cc(=O)c3c(O)cc(C)cc3o2)cc(OC)c1OC	inactive
COc1cc(-c2cc(=O)c3c(O)cc(O)cc3o2)cc(OC)c1OC	inactive
O=c1cc(-c2ccccc2)oc2c(O)c(O)cc(O)c12	inactive
C[C@@H]1O[C@@H](OC[C@H]2O[C@@H](Oc3ccc4c(=O)c(-c5ccc6c(c5)OCO6)coc4c3)[C@H](O)[C@@H](O)[C@@H]2O)[C@H](O)[C@@H](O)[C@H]1O	inactive
COc1ccc(-c2oc3cc(O)cc(O)c3c(=O)c2OC)cc1OC	inactive
COc1ccc(-c2cc(=O)c3c(C)cc(O)cc3o2)cc1	inactive
COc1ccc(-c2cc(=O)c3c(O)cccc3o2)cc1	inactive
COc1ccc(-c2cc(=O)c3ccc(O)cc3o2)cc1	inactive
COc1ccc(-c2oc3ccccc3c(=O)c2O)cc1	inactive
O=c1c(-c2ccccc2)coc2ccccc12	inactive
Cc1ccc(-c2oc3ccccc3c(=O)c2O)cc1	inactive
COc1cc(-c2cc(=O)c3ccc(O)c([C@@H]4O[C@H](CO)[C@@H](O)[C@H](O)[C@H]4O)c3o2)ccc1O	inactive
COc1ccc(-c2coc3cc(O)cc(O)c3c2=O)cc1	inactive
COc1ccc(-c2coc3cc(O)ccc3c2=O)cc1	inactive
COc1cc(OC)c2c(=O)c(O)c(-c3ccc(OC)c(OC)c3)oc2c1	inactive
C[C@@H]1O[C@@H](OC[C@H]2O[C@@H](Oc3c(-c4ccc(O)c(O)c4)oc4c(O)cc(O)cc4c3=O)[C@H](O)[C@@H](O)[C@@H]2O)[C@H](O)[C@H](O)[C@H]1O	inactive
COc1ccc(-c2oc3ccccc3c(=O)c2O)cc1OC	inactive

SMILES	Activity
COc1cc(C2Oc3cc(OC)c(OC)c(O)c3C(=O)C2OC)ccc1O (centres undefined)	inactive
COc1ccc(-c2oc3cc(CC=C(C)C)cc(O)c3c(=O)c2OC)cc1OC	inactive
CC(=O)Oc1cc(OC(C)=O)c2c(=O)c(OC(C)=O)c(-c3ccc(OC(C)=O)c(OC(C)=O)c3)oc2c1	inactive
COc1ccc(-c2cc(=O)c3c(C)cc(O)cc3o2)cc1OC	inactive
CC(=O)c1c(O)cc(O)cc1-c1cc(=O)c2c(O)ccc(C(C)=O)c2o1	inactive
COc1cc(OC)c(-c2cc(=O)c3c(O)cc(O)cc3o2)c(OC)c1	inactive
COc1cc2oc(-c3ccc(O)cc3)c(O[C@@H]3O[C@@H](C)[C@H](O)[C@@H](O)[C@H]3O)c(=O)c2c(O)c1OC	inactive
COC1(O)C(=O)c2ccccc2OC1(OC)c1ccc(Cl)cc1 (centres undefined)	inactive
COc1ccc(-c2cc(=O)c3c(O)cc(O)cc3o2)cc1OC	inactive
O=C1C(=O)C(c2ccccc2)Oc2ccccc21 (centres undefined)	inactive
COc1ccc(-c2cc(=O)c3c(O)cc(C)cc3o2)cc1OC	inactive
COc1ccc2c(c1)OC(OC)(c1ccc(OC)c(OC)c1)C(O)(OC)C2=O (centres undefined)	inactive
COC1(c2ccccc2)Oc2ccccc2C(=O)C1(O)C[N+](=O)[O-] (centres undefined)	inactive
COc1cc(-c2cc(=O)c3c(C)cc(O)cc3o2)cc(OC)c1OC	inactive
CC(=O)Oc1ccc2c(=O)c(-c3ccccc3)c(C)oc2c1	inactive
COc1cc(O)c2c(=O)c(OC)c(-c3ccc(O)c(OC)c3)oc2c1	inactive
COc1ccc(C2(OC)Oc3ccccc3C(=O)C2(O)OC)cc1OC (centres undefined)	inactive
COc1ccc2c(=O)c(O)c(-c3ccc(OC)c(OC)c3)oc2c1	inactive
COc1cc(-c2cc(=O)c3ccc(O)cc3o2)cc(OC)c1OC	inactive

The compounds below were run on KB (assay: Cytotoxicity against human KB cells). Conditions: read-out: ED50 (the source's name).
Format: functional

SMILES	EC50 [µg/mL]
COc1ccc(-c2oc3cc(O)c(O)c(O)c3c(=O)c2O)cc1OC	27 (≈ 78 µM)
